The values that follow come from patent US20250049032A1, “ETHYLENE SIGNALING ACTIVATOR MODULATES ROOT SYSTEM ARCHITECTURE” (Salk Institute for Biological Studies, priority 2021, published 2025).

For one experiment, the system named is Arabidopsis roots. As to conditions: 4 hours of ethylene treatment; cited from earlier work.
The subject of experiment [1] is Ethylene Response Factor1 (ERF1). Description: Expression of ethylene response marker gene ERF1. Format: in vivo, Arabidopsis thaliana. Particulars: root tissue, 2 hours, 10 μM MBZ or ACC (50 μM per legend).
Another experiment deals with EIN3. Description: 35S-EIN3-GFP protein level in ein3eil1 background. It is filed as in vivo, Arabidopsis thaliana. Particulars: 2 hours, 10 μM MBZ or 50 μM ACC. The text has this: (§1) LaserMicroscopy. A Zeiss 710 confocal microscope with 20×, 40×, and 63× objectives were used to detect GFP and propidium iodide (PI) fluorescence. A Keyence BZ-X810 microscope with a 20× objective was used to detect bright field images and GFP fluorescence in FIG. 3B, FIG. 8B right panel, FIG. 9C, FIG. 9F.

For experiment [2], the system named is etiolated Arabidopsis seedlings. In words: Triple response of etiolated seedlings. As to conditions: 4-days-old etiolated etr1-3 seedlings, 2.5 μM MBZ or 10 μM ACC. Format: in vivo, Arabidopsis thaliana.
Experiment [3] has as its system root cells of etiolated seedlings. Description: Root cell size by confocal microscopy (PI staining). As to conditions: 4-day-old etiolated seedlings, 2.5 μM MBZ or 10 μM ACC. It is filed as in vivo, Arabidopsis thaliana.
Source text: as §1

In experiment [4] the test system is etiolated Col-0 seedlings. In words: Measurement of ethylene production by GC-MS. Particulars: 3-days-old etiolated Col-0 seedlings, 10 μM. Format: in vivo, Arabidopsis thaliana. Here is the method: Measurement of ethylene production. […] These vials were incubated at 22° C. for 3 days under dark environment. 500-1000 μL sample of the headspace gas was sampled with an autosampler (TriPlus RSH, Thermo Scientific) and injected into a gas chromatograph (Trace 1310 GC, Thermo Scientific) that was equipped with a HP-PLOTQ column ([…], 320 μm, 20 μm) and a mass spectrometer (TSQ8000 Evo MS, Thermo Scientific), scanning from 25-27.5 m/z. Separations were carried out at 35° C. using He as the carrier gas. The area of the ethylene peak (RT: 4 min) was integrated using Thermo Xcalibur Qual Browser. A calibration curve was generated by varying the injection volume (100 μL, 250 μL, 500 μL, and 1000 μL) of a 10 ppm ethylene standard (in nitrogen), and sample results are expressed as concentrations calculated from linear regression of calibration samples.

Experiment [5] deals with Arabidopsis thaliana roots.
The subject of another experiment is microtubules (TUB6-GFP). In words: Microtubule orientation in root tips of TUB6-GFP seedlings. It is filed as in vivo, Arabidopsis thaliana. As to conditions: 1 μM IAA or 50 μM MBZ.
Source text: as §1

Where [6] appears, read: 8-day-old seedlings, 1 μM MBZ or 10 nM IAA plates.

With `C=C` [ethylene], the “number of DEGs upon ethylene treatment (published data)” value in the experiment with Arabidopsis roots was 1397 genes.
For `NC1(C(=O)O)CC1` [ACC, 1-aminocy-clopropane-1-carboxylic acid], the “transcript level of ERF” value in experiment [1] is recorded as “strongly induced”. Further, the 35S-EIN3-GFP protein level entry with EIN3 is reported as “dramatically induced”. Also, the “triple response in etr1-3” value in experiment [2] is “completely insensitive”. Moreover, the mature cell size result in experiment [3] is “reduced”. The ethylene production entry in experiment [4] is listed as “dramatically induced”. Also, the “effect on root angle” value in experiment [5] (ACC at certain concentrations (0.1-10 μM range)) was “weak but distinct effect”.
In the case of `O=C(O)Cc1c[nH]c2ccccc12` [IAA], in the experiment on microtubules (TUB6-GFP), the “orientation of tubulin in roots within 1 h” value was “significantly changed”. In addition, in experiment [5] (setting [6]), the root elongation entry is “inhibited” and the root hair growth entry is “enhanced”.
